Literature values, collected in US10753947B2, “Methods for screening voltage-gated proteins” (D.E. Shaw Research, LLC, priority 2012, dated 2020).
Where two headings read alike, the source gives them in different places.

Key:
Kv1.3 = Kv1.3 (Homo sapiens, UniProt P22001); conditions: cited from earlier work
Kv1.1 = Kv1.1 (Homo sapiens, UniProt Q09470); conditions: Table 4; read-out: IC50 Kv1.1; cited from earlier work
Kv1.2 = Kv1.2 (Homo sapiens, UniProt P16389); conditions: Table 4; read-out: IC50 Kv1.2; cited from earlier work
Kv1.2, sequence (P16389 whole entry): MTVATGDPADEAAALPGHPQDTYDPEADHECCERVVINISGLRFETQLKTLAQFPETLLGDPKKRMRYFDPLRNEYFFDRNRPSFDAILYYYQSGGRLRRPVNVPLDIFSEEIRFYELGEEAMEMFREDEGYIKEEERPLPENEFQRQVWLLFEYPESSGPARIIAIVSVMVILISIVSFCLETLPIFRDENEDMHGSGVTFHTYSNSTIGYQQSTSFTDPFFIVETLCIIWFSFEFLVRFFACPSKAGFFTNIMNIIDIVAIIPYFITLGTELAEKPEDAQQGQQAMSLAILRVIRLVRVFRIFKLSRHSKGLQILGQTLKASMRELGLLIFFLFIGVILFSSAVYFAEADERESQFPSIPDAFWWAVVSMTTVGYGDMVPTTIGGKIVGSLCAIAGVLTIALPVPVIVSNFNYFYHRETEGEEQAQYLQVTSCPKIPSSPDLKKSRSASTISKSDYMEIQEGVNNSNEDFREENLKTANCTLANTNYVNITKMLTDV

Kv1.5 = Kv1.5 (Homo sapiens, UniProt P22460); conditions: Table 4; cited from earlier work
Kv1.5, sequence (P22460 whole entry): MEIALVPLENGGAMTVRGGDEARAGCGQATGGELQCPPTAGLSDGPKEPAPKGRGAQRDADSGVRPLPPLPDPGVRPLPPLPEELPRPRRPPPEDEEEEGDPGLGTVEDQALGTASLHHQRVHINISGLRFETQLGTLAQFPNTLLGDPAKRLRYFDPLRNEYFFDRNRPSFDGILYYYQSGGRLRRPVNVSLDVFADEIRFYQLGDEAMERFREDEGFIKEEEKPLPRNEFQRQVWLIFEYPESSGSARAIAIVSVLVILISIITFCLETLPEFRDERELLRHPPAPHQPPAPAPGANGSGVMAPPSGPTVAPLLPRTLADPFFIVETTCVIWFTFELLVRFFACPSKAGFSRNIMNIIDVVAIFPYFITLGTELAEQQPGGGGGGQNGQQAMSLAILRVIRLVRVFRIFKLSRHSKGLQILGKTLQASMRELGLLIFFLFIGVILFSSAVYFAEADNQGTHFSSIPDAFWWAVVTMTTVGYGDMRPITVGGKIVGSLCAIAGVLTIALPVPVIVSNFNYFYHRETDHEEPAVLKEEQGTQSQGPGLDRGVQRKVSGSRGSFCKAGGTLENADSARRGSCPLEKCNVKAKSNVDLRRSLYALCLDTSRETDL

KCa3.1 = KCa3.1 (Homo sapiens, UniProt O15554); conditions: Table 4; cited from earlier work
KCa3.1, sequence (O15554 whole entry): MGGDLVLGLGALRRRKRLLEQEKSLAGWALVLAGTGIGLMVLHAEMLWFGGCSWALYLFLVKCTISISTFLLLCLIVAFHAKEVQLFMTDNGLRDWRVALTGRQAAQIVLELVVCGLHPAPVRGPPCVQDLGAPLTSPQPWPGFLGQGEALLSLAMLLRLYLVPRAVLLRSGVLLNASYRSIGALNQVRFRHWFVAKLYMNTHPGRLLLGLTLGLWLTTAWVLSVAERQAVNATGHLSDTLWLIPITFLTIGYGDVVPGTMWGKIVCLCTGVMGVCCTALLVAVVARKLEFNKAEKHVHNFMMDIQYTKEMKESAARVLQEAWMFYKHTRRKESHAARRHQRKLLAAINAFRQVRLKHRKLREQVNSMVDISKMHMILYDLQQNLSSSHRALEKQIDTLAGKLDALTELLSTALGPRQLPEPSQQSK

Nav = conditions: Table 4; read-out: IC50 Others: Nav; cited from earlier work
Kv1.4 = Kv1.4 (Homo sapiens, UniProt P22459); conditions: Table 4; read-out: IC50 Others: Kv1.4; cited from earlier work
Kv1.4, sequence (P22459 whole entry): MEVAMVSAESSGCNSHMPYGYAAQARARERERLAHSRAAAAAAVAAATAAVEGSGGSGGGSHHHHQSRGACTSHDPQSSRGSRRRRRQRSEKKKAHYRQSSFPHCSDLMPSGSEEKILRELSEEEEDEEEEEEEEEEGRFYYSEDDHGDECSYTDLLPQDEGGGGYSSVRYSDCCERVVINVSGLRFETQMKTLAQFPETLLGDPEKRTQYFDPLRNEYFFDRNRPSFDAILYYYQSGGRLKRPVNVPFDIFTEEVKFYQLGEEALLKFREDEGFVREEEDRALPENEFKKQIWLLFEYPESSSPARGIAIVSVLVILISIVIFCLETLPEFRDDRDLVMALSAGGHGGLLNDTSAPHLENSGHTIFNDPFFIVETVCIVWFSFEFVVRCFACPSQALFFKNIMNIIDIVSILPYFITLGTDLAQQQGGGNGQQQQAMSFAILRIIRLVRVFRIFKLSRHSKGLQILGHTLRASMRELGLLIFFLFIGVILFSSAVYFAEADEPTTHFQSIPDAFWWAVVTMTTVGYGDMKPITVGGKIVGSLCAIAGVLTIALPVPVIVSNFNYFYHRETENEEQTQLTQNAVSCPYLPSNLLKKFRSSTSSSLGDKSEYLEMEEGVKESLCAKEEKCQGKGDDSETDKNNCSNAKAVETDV

Kv3.2 = target: T1, Kv3.2 (Homo sapiens, UniProt Q96PR1); conditions: Table 4; read-out: IC50 Others: Kv3.2; cited from earlier work
T1 sequence (Q96PR1 1-638): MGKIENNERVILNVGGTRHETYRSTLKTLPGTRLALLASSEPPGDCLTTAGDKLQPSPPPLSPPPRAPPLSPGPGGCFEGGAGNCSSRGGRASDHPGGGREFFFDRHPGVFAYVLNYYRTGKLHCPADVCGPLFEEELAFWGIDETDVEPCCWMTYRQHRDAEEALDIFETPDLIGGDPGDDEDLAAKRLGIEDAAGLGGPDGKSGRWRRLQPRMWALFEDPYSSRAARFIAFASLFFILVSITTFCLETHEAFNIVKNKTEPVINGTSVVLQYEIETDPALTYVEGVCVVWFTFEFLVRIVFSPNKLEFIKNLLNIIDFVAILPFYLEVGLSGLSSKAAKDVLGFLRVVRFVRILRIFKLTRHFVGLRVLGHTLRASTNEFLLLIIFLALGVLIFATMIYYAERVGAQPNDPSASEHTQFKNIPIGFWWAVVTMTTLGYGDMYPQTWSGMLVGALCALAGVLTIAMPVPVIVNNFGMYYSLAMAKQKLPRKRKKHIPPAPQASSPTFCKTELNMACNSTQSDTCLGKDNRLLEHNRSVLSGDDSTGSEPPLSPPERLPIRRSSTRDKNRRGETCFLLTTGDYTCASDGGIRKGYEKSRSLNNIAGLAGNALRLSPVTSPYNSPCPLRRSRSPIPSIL

[1] = Table 2, modulating Kv1.3 ion conductance, read-out: IC50

Kv1.3, sequence (P22001 whole entry): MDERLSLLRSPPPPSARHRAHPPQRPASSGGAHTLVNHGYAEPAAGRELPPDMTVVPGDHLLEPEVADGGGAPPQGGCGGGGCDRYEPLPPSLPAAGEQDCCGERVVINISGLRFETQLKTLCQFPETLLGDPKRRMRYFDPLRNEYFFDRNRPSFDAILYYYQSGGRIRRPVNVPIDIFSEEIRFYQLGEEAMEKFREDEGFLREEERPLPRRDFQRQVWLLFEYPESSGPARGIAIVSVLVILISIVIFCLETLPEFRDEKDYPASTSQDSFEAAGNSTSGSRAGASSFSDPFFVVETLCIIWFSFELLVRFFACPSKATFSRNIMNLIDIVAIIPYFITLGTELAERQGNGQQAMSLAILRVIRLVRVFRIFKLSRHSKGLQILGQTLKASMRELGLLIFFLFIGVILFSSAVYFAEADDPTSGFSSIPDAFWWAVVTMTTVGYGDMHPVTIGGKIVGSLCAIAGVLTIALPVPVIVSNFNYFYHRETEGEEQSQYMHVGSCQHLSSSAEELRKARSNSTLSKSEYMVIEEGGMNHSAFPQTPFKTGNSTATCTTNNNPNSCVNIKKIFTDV
Kv1.1, sequence (Q09470 whole entry): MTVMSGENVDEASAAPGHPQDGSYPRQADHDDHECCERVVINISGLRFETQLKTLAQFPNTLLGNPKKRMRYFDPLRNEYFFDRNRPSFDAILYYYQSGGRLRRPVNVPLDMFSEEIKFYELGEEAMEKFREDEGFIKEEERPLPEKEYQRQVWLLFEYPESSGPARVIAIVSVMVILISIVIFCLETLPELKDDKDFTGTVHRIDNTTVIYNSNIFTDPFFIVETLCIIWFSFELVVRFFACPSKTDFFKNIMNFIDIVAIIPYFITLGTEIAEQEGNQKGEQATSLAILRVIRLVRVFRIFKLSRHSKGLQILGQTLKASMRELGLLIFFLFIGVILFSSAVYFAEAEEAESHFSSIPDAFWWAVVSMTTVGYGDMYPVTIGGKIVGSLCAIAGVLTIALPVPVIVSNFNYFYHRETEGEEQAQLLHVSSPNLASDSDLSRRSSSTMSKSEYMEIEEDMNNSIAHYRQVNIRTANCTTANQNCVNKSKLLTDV

In the case of `CCCCC/N=c1\ccn(Cc2ccccc2)c2ccccc12` [CP-339818], the IC50 (Kv1.3; [1]) is listed as 150 nM, the IC50 (Kv1.3; Table 4, read-out: IC50 Kv1.3) is listed as 230 nM and the IC50 (Kv1.1) is listed as 62000 nM. For the same compound, the IC50 (Kv1.2) was 14000 nM, the IC50 (Kv1.5) was 19000 nM and the IC50 (KCa3.1) was > 500000 nM. For the same compound, the IC50 (Nav) was 10 nM.

In the case of `COc1ccc(CCCN2CCC(COC(c3ccccc3)c3ccccc3)CC2)cc1` [UK-78282], the IC50 (Kv1.3; [1]) is given as 200 nM, the IC50 (Kv1.1) is given as 22000 nM and the IC50 (Kv1.2) is given as 2900 nM. The IC50 (Kv1.5) was 70 nM, the IC50 (KCa3.1) was > 30000 nM and the IC50 (Kv1.4) was 300 nM. The IC50 (Kv3.2) was 127000 nM.
